# Structures can show the parent of a compound that is named as a salt. Where two headings read alike, the source gives them in different places.
# Columns and labels:
# in vivo = conditions: mouse, ip
# mice = assay: Anti-arrhythmic activity in mice; assay type: in vivo; conditions: Mus musculus, po, 0.5 h, read-out: Anti-arrhythmic activity: number of mice protected in relation with the number of tested mice
# Description: ^(4) Number of mice protected in relation with the number of tested
# mice (dose = 100 mg/kg per os; recording 30 min. after administration)
# [1] = Local anaesthesic activity; assay type: in vivo; conditions: read-out: Local anaesthesic activity ED50
# [2] = tested on: isolated auricles of guinea pigs; conditions: dose 1.10 - 6 g/ml of bath
# [3] = Peripherical vasodilatator activity (intra-arterial); assay type: in vivo; conditions: dose = 30 γ/kg intra-arterial
# From the text: activity equal to that of papaverine; ++++ = activity higher than that of
# papaverine (dose = 30 γ /kg intra-arterial)
# [4] = Solubility of salt in water; assay type: physicochemical
# Description: To 1.20 g of 1-(3-methyl-4-methylthiophenyl)-2-isopropylaminoethanol in 40 ml of water, 1.96 ml of a 50% gluconic acid solution are added. The mixture is heated in water-bath during 1 hour at 70°, then the solution is lyophilised (2.18 g of the salt obtained are soluble in 5 ml of water and give a pH of 4.6).
# To 1.2 g of 1-(3-methyl-4-methylthiophenyl)-2-isopropylaminoethanol in 32 ml of water, 0.53 g of a 85% aqueous lactic acid solution are added. The product is heated in a water-bath for 2 hours at 50°, then the solution is lyophilised. (1.55g of the salt obtained are soluble in 5 ml of water).
# [5] = 100 mg/kg per os, recording 30 min. after administration
compound,measurement,setting,value
Cc1cc(C(O)CN2CCCCC2)ccc1SCC(C)C (stereo not shown) [compound 86],LD50,in vivo,110 mg/kg
"CCC(C)NCC(O)c1ccc(SC)c(C)c1 (stereo not shown) [Table III No. 33, 1-(3-Methyl-4-methylthiophenyl)-2-secbutylaminoethanol]",responders at 100 mg/kg,mice,40%
same,ED50,[1],~5 mg/kg
CCSc1ccc(C(O)CNC(C)C)cc1C (stereo not shown) [compound 74],LD50,in vivo,150 mg/kg
"CCc1cc(C(O)CNC(C)C)ccc1SC (stereo not shown) [Table III No. 47, 1-(3-Ethyl-4-methylthiophenyl)-2-isopropylaminoethanol]","Protection against anoxia, activity",[2],++
same,responders at 100 mg/kg,mice,65%
CSc1ccc(C(O)CN2CCCCC2)cc1Cl (stereo not shown) [Table III No. 24],Peripherical vasodilatator activity,[3],+ ++
same,LD50,in vivo,364 mg/kg
CSc1ccc(C(O)CNC(C)(C)C)cc1C (stereo not shown) [Table III No. 12],"Protection against anoxia, activity",[2],+
CCCCSc1ccc(C(O)CN2CCC(C)CC2)cc1C (stereo not shown) [Table IV No. 63],responders at 100 mg/kg,mice; [5],20%
same,ED50,"[1]; ED50, interval in brackets",4.1 mg/kg
Cc1cc(C(O)CN2CCCCC2)ccc1SC(C)C (stereo not shown) [compound 124],LD50,in vivo,150 mg/kg
CCCCCSc1ccc(C(O)CNCCCC)cc1C (stereo not shown) [compound 104],LD50,in vivo,75 mg/kg
"CC(C)NCC(O)COc1cccc2ccccc12 (stereo not shown) [Propranolol, reference compound]","Protection against anoxia, activity",[2],0
same,responders at 100 mg/kg,mice,100%
same,ED50,[1],1.4 mg/kg
Cc1cc(C(O)CN2CCC(C)CC2)ccc1SC(C)C (stereo not shown) [compound 133],LD50,in vivo,110 mg/kg
CCCCCSc1ccc(C(O)CNC(C)(C)C)cc1C (stereo not shown) [compound 102],LD50,in vivo,91 mg/kg
Cc1cc(C(O)CNC(C)C)ccc1SC(C)C (stereo not shown) [compound 127],LD50,in vivo,182 mg/kg
CCC(C)NC(C)C(O)c1ccc(SC)c(Cl)c1 (stereo not shown) [Table III No. 8],LD50,in vivo,150 mg/kg
CCCCSc1ccc(C(O)CN(C)C)cc1C (stereo not shown) [compound 94],LD50,in vivo,150 mg/kg
CSc1ccc(C(O)CNC(C)C)cc1C (stereo not shown) [1-(3-Methyl-4-methylthiophenyl)-2-isopropylaminoethanol gluc] [1-(3-Methyl-4-methylthiophenyl)-2-isopropylaminoethanol gluconate],pH of solution of salt in water,[4]; 2.18 g in 5 ml of water,4.6
same,amount of salt soluble in 5 ml of water,[4],≥ 2.18 g
CCSc1ccc(C(O)CNC2CCCCC2)cc1C (stereo not shown) [Table IV No. 51],ED50,[1],> 5 mg/kg
"CSc1ccc(C(O)CN2CCCCC2)cc1C (stereo not shown) [CH3 S--, 3CH3 (amine drawn)]","Protection against anoxia, activity",[2],+
CCc1cc(C(O)CNC(C)(C)C)ccc1SC (stereo not shown) [compound 50],LD50,in vivo,150 mg/kg
CCCCSc1ccc(C(O)CNC(C)C(O)c2ccccc2)cc1C (stereo not shown) [Table IV No. 66],responders at 100 mg/kg,mice,20%
CSc1ccc(C(O)CNC(C)(C)C)cc1Cl (stereo not shown) [Table III No. 2],responders at 100 mg/kg,mice,10%
Cc1cc(C(O)CNC(C)(C)C)ccc1SC(C)C (stereo not shown) [compound 125],LD50,in vivo,150 mg/kg
Cc1cc(C(O)CN2CCC(C)CC2)ccc1SCC(C)C (stereo not shown) [compound 85],LD50,in vivo,182 mg/kg
CCCCCCSc1ccc(C(O)CN2CCCCC2)cc1C (stereo not shown) [compound 108],LD50,in vivo,182 mg/kg
CCCCNCC(O)c1ccc(SCCCC)c(C)c1 (stereo not shown) [compound 97],LD50,in vivo,110 mg/kg
CCCCCCSc1ccc(C(O)CNCCC)cc1C (stereo not shown) [compound 112],LD50,in vivo,364 mg/kg
CCc1cc(C(O)CNC(C)CC)ccc1SC (stereo not shown) [compound 51],Peripherical vasodilatator activity,[3],+ ++
CSc1ccc(C(O)C(C)N2CCC(C)CC2)cc1C (stereo not shown) [Table III No. 20],LD50,in vivo,91 mg/kg
CCCCSc1ccc(C(O)CN2CCCC(C)C2)cc1C (stereo not shown) [compound 95],LD50,in vivo,150 mg/kg
Cc1cc(C(O)CN2CCOCC2)ccc1SC(C)C (stereo not shown) [compound 126],LD50,in vivo,440 mg/kg
"CSc1ccc(C(O)CNC(C)C)cc1Cl (stereo not shown) [Table III No. 11, 1-(3-Chloro-4-methylthiophenyl)-2-isopropylaminoethanol]","Protection against anoxia, activity",[2],++
same,LD50,in vivo,150 mg/kg
same,responders at 100 mg/kg,mice,55%
same,ED50,[1],> 5 mg/kg
CCCCSc1ccc(C(O)CN2CCC(C)CC2)cc1C (stereo not shown) [compound 96],LD50,in vivo,182 mg/kg
CCCCCCSc1ccc(C(O)CNC(C)(C)C)cc1C (stereo not shown) [compound 107],LD50,in vivo,110 mg/kg
CSc1ccc(C(O)CNC(C)Cc2ccccc2)cc1Cl (stereo not shown) [Table III No. 22],LD50,in vivo,55 mg/kg
CCCCSc1ccc(C(O)CNC(C)(C)C)cc1C (stereo not shown) [compound 90],LD50,in vivo,91 mg/kg
"CCc1cc(C(O)CNC(C)CC)ccc1SC (stereo not shown) [Table III No. 51, 1-(3-Ethyl-4-methylthiophenyl)-2-secbutylaminoethanol]",responders at 100 mg/kg,mice,60%
same,ED50,[1],> 5 mg/kg
"COc1cc(C(O)CNC(C)(C)C)ccc1SC (stereo not shown) [Table IV No. 33, 1-(3-Methoxy-4-methylthiophenyl)-2-tertbutylaminoethanol hydrochloride]",responders at 100 mg/kg,mice,20%
CCc1cc(C(O)CNC(C)(C)C)ccc1SC (stereo not shown) [Table III No. 50],responders at 100 mg/kg,mice,50%
same,ED50,[1],> 5 mg/kg
CCSc1ccc(C(O)CNCCc2ccccc2)cc1C (stereo not shown) [compound 81],LD50,in vivo,75 mg/kg
"CCN(CC)CCOC(=O)c1ccc(N)cc1 [Procaine, reference compound]",ED50,[1],1.8 mg/kg
CCC(C)NCC(O)c1ccc(SC)c(C)c1 (stereo not shown) [compound 33],Peripherical vasodilatator activity,[3],++ +
CCCCNCC(O)c1ccc(SC(C)C)c(C)c1 (stereo not shown) [compound 129],LD50,in vivo,46 mg/kg
CCSc1ccc(C(O)CNC2CCCCC2)cc1C (stereo not shown) [Table III No. 77],LD50,in vivo,91 mg/kg
CCC(C(O)c1ccc(SC)c(Cl)c1)N1CCOCC1 (stereo not shown) [Table III No. 28],ED50,[1],> 5 mg/kg
CSc1c(C)cc(C(O)CN2CCCCC2)cc1Cl (stereo not shown) [compound 62],LD50,in vivo,220 mg/kg
CCCCNCC(O)c1ccc(SCC)c(C)c1 (stereo not shown) [compound 80],LD50,in vivo,110 mg/kg
same,ED50,[1],> 5 mg/kg
CSc1ccc(C(O)CNC2CCCCC2)cc1C (stereo not shown) [Table IV No. 24],responders at 100 mg/kg,mice,40%
same,ED50,[1],> 5 mg/kg
CSc1c(C)cc(C(O)CNC(C)C)cc1Cl (stereo not shown) [Table III No. 64],LD50,in vivo,182 mg/kg
same,ED50,[1],4.1 mg/kg
"CSc1ccc(C(O)CNC2CCCCC2)cc1C (stereo not shown) [CH3 S--, 3CH3 (amine drawn)]","Protection against anoxia, activity",[2],++
CSc1ccc(C(O)CNC(C)Cc2ccccc2)cc1C (stereo not shown) [compound 31],LD50,in vivo,75 mg/kg
CSc1ccc(C(O)CN)cc1C (stereo not shown) [compound 41],LD50,in vivo,150 mg/kg
CCCCCCCCNCC(O)c1ccc(SC(C)C)c(C)c1 (stereo not shown) [compound 131],LD50,in vivo,86 mg/kg
CCSc1ccc(C(O)CNC(C)(C)C)cc1C (stereo not shown) [Table III No. 73],LD50,in vivo,220 mg/kg
same,ED50,[1],~5 mg/kg
"C=C[C@H]1C[N@@]2CC[C@H]1C[C@@H]2[C@@H](O)c1ccnc2ccc(OC)cc12 [Quinidine, reference compound]",responders at 100 mg/kg,mice; [5],20%
"COc1ccc(Cc2nccc3cc(OC)c(OC)cc23)cc1OC [Papaverine, reference compound]","Protection against anoxia, activity",[2],0
same,LD50,in vivo,300 mg/kg
Cc1cc(C(O)CNC2CCCCC2)ccc1SC(C)C (stereo not shown) [compound 130],LD50,in vivo,75 mg/kg
CCCCNCC(O)c1ccc(SC)c(Cl)c1 (stereo not shown) [Table III No. 15],LD50,in vivo,110 mg/kg
CSc1ccc(C(O)CN2CCC(C)CC2)cc1C (stereo not shown) [Table IV No. 27],responders at 100 mg/kg,mice; [5],20%
same,ED50,"[1]; ED50, interval in brackets",> 5 mg/kg
CCCCSc1ccc(C(O)CN2CCCCC2)cc1C (stereo not shown) [compound 93],LD50,in vivo,182 mg/kg
CCCCCCSc1ccc(C(O)CN2CCOCC2)cc1C (stereo not shown) [compound 109],LD50,in vivo,600 mg/kg
"CSc1ccc(C(O)CNC(C)C)cc1C (stereo not shown) [Table III No. 1, 1-(3-methyl-4-methylthiophenyl)-2-isopropylaminoethanol]","Protection against anoxia, activity",[2],++
same,LD50,in vivo,150 mg/kg
same,responders at 100 mg/kg,mice,60%
same,ED50,[1],4.5 mg/kg
CCCCCCCCSc1ccc(C(O)CNC(C)CC)cc1C (stereo not shown) [Table III No. 117],responders at 100 mg/kg,mice,30%
CSc1ccc(C(O)CNC(C)C)cc1C (stereo not shown) [1-(3-Methyl-4-methylthiophenyl)-2-isopropylaminoethanol lact] [1-(3-Methyl-4-methylthiophenyl)-2-isopropylaminoethanol lactate],amount of salt soluble in 5 ml of water,[4],≥ 1.55 g
CSc1ccc(C(O)CN2CCCCC2)cc1C (stereo not shown) [Table IV No. 8],responders at 100 mg/kg,mice; [5],20%
same,ED50,"[1]; ED50, interval in brackets",1.6 mg/kg
CCCC(NC(C)CC)C(O)c1ccc(SC)c(Cl)c1 (stereo not shown) [compound 40],ED50,[1],~5 mg/kg
CCSc1ccc(C(O)CNC(C)Cc2ccccc2)cc1C (stereo not shown) [compound 83],LD50,in vivo,110 mg/kg
CSc1ccc(C(O)C(C)NC(C)(C)C)cc1Cl (stereo not shown) [Table III No. 3],LD50,in vivo,440 mg/kg
same,responders at 100 mg/kg,mice,10%
same,ED50,[1],> 5 mg/kg
"CSc1ccc(C(O)CNC(C)C)cc1F (stereo not shown) [Table III No. 58, 1-(3-fluoro-4-methylthiophenyl)-2-isopropylaminoethanol]",responders at 100 mg/kg,mice,20%
same,ED50,[1],> 5 mg/kg
CCCCCCCCNCC(O)c1ccc(SC)c(CC)c1 (stereo not shown) [compound 45],LD50,in vivo,75 mg/kg

# Reference: patent publication US3954871A, “1-(4-Alkylthiopheny)-2-substituted amino-alcohols and their salts” (Continental Pharma, priority 1969, dated 1976)
